Assay results from article PMC9329436, “Optimization of the 4-anilinoquin(az)oline scaffold as epidermal growth factor receptor (EGFR) inhibitors for chordoma utilizing a toxicology profiling assay platform” (Scientific Reports, 2022).
Where two headings read alike, the source gives them in different places.

How the values were obtained:
Format in all cases: biochemical
[1] = target: T1, 320 wild-type protein kinases (Homo sapiens, UniProt P33981); settings: kinase TTK, singlicate
T1 sequence (P33981 1-857): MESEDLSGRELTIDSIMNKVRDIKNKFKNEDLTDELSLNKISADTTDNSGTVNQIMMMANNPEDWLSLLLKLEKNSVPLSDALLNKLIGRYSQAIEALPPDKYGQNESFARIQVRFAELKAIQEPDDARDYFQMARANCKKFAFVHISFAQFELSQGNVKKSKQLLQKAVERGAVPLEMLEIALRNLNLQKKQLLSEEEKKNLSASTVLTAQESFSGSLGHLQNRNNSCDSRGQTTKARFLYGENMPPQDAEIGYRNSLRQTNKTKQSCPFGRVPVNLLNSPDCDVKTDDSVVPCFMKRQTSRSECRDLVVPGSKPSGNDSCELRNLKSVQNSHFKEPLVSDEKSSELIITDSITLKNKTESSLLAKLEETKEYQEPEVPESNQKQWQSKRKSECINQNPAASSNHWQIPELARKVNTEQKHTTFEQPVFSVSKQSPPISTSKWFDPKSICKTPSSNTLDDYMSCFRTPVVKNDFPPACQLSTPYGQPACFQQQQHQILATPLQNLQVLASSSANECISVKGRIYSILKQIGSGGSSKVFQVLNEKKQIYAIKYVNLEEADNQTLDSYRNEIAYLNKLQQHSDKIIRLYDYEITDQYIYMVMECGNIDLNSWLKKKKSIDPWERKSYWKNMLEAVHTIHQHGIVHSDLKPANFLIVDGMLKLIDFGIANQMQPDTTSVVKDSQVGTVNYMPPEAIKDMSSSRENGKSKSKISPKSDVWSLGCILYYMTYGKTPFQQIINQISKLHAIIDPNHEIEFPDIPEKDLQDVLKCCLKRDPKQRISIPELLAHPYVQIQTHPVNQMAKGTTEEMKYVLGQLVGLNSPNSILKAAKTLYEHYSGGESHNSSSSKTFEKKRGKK
Text: (§1) Table S4. Profiling of two compounds at two concentrations against 320 wild-type protein kinases; singlicate measurement; Residual activities (% of control).

[2] = target: T2, 320 wild-type protein kinases (Homo sapiens, UniProt Q02156); settings: PKC-epsilon, singlicate
T2 sequence (Q02156 1-737): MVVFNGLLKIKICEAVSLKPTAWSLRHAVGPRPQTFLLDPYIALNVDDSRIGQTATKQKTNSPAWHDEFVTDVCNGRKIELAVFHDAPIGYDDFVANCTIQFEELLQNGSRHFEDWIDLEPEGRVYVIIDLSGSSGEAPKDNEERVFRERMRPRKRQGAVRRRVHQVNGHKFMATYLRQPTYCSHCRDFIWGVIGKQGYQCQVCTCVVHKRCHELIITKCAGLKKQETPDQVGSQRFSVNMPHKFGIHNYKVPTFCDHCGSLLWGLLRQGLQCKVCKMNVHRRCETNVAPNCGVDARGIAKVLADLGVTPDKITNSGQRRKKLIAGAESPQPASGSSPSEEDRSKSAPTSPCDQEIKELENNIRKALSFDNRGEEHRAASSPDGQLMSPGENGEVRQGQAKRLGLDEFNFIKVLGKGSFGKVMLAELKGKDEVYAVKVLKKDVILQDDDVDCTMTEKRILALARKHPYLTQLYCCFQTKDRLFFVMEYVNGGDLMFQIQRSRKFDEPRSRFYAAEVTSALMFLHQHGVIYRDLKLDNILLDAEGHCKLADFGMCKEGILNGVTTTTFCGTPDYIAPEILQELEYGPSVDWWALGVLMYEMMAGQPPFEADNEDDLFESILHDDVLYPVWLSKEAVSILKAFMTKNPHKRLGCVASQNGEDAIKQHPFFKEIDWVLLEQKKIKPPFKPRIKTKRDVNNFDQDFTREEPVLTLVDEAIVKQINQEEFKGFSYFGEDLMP
Text: as §1

[3] = target: T3, 320 wild-type protein kinases (Homo sapiens, UniProt Q13043); settings: singlicate
T3 sequence (Q13043 1-487): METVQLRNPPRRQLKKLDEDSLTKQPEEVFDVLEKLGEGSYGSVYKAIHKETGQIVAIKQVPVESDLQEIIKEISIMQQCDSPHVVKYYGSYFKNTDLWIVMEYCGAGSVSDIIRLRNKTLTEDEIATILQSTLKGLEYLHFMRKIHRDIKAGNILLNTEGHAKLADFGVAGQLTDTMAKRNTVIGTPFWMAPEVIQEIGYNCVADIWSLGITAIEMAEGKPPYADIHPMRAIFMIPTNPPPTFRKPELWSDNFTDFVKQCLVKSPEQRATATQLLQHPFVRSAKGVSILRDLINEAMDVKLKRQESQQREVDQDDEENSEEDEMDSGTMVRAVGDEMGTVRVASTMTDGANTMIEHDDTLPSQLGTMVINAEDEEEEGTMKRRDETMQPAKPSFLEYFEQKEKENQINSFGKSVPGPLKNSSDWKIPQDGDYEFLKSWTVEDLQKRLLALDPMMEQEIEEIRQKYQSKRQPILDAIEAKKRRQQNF
Text: as §1

[4] = target: T4, 320 wild-type protein kinases (Homo sapiens, UniProt Q09013); settings: DMPK, singlicate
T4 sequence (Q09013 1-629): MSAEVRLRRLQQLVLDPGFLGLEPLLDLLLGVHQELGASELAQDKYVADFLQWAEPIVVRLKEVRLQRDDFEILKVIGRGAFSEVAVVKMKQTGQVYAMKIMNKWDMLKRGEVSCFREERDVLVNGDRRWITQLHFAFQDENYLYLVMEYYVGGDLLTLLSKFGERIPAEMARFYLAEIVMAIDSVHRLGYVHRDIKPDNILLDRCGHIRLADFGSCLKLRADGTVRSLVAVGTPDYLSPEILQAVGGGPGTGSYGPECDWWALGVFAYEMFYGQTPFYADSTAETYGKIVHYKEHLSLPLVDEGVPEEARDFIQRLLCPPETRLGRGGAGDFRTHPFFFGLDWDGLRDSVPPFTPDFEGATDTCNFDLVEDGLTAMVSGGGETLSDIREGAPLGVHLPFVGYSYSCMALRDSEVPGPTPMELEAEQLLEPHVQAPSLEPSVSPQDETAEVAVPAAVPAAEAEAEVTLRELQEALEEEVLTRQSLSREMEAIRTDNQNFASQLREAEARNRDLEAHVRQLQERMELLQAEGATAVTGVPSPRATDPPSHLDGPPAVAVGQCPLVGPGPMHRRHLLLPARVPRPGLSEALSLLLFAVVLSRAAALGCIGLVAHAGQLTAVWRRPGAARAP
Text: as §1

[5] = target: 320 wild-type protein kinases (Homo sapiens, UniProt P53667); settings: singlicate
Text: as §1

320 wild-type protein kinases (Homo sapiens, UniProt P53667), sequence (P53667 whole entry): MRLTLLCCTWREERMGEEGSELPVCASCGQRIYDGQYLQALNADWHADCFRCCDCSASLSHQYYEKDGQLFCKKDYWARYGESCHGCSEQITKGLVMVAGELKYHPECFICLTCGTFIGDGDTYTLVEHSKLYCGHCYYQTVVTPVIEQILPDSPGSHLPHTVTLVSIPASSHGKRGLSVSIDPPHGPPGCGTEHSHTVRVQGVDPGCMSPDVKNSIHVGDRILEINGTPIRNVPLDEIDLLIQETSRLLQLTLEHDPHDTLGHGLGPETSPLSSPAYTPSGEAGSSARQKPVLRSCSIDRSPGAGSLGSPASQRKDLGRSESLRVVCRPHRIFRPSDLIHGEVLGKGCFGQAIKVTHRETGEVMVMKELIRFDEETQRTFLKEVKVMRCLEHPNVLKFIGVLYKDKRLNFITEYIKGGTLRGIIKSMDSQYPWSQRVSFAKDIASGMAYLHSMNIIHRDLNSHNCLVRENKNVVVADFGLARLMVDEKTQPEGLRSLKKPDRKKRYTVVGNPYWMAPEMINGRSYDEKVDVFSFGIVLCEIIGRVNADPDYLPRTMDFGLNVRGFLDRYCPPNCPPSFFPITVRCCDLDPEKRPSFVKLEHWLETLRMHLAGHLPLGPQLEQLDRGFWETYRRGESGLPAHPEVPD

| Structure (SMILES) | Residual activity, TTK ([1]; assay conc. 1.0E-06 M) | Residual activity, TTK ([1]; assay conc. 1.0E-07 M) | Residual activity ([2]; 1.0E-06 M) | Residual activity ([2]; 1.0E-07 M) | Residual activity ([3]; MST1, 1.0E-06 M) | Residual activity ([3]; MST1, 1.0E-07 M) | Residual activity ([4]; 1.0E-06 M) | Residual activity ([4]; 1.0E-07 M) | Residual activity ([5]; LIMK1, 1.0E-06 M) | Residual activity ([5]; LIMK1, 1.0E-07 M) |
| --- | --- | --- | --- | --- | --- | --- | --- | --- | --- | --- |
| C#Cc1cc(Nc2ncnc3cc(I)ccc23)ccc1Cl [Compound 41] | 81 % of control | 100 % of control | 89 % of control | 82 % of control | 84 % of control | 80 % of control | 106 % of control | 121 % of control | 86 % of control | 101 % of control |
| C#Cc1cc(Nc2ncnc3cc(OC)c(OC)cc23)ccc1Cl [Compound 45] | 83 % of control | 97 % of control | 88 % of control | 89 % of control | 83 % of control | 89 % of control | 104 % of control | 103 % of control | 90 % of control | 103 % of control |
